Experiments:
[1] = tested on: VDAC; assay: VDAC cross-linking assay (VDAC oligomerization) in BMDM; type: cell-based, mouse; conditions: LPS-primed BMDM; for induction of VDAC oligomerization by mtROS generator: DMNQ 20 μM 16 hrs or MitoParaquat 5 μM 1 hr; for VDAC oligomerization induced by NLRP3 activator: compound pretreatment 16 h (VBIT-4 10 μM, CsA 1 μM, RuR 10 μM), ATP 4 mM or nigericin 10 μM 1 h
Experimental: BMDM treated as indicated were washed and collected in PBS, incubated for 40 min at 30° C. with the cross-linking reagent EGS (200 μM). Samples were subjected to SDS-PAGE and IB analyzed with anti-VDAC antibody.

[2] = tested on: mPTP; assay: calcein-quenching assay for mPTP opening in BMDM; type: cell-based; conditions: for induction of mPTP opening by mtROS generator: LPS-primed BMDM, DMNQ 20 μM 16 hrs or MitoParaquat 5 μM 1 hr; for mPTP opening (calcein fluorescence): BMDM pretreated 16 h (CsA 1 μM, VBIT-4 10 μM, RuR 10 μM), LPS-primed, ATP or nigericin 1 h
Experimental: (§2) Bone marrow cells were cultured in high glucose DMEM supplemented with 10% FBS, 20% L929-cell conditioned medium, and 100 U/mL penicillin-streptomycin for 7-10 days at 37° C. with 5% CO2 (Hornung et al., 2008).
(§3) Mitochondrial membrane potential was measured using TMRM according to manufacturer's instructions. Briefly, BMDM were primed or not with LPS for 4 h, and further stimulated with ATP or nigericin for 60 minutes. Cells were incubated with 200 nM TMRM for 30 minutes at 37° C. After washing twice, fluorescence intensity was determined per manufacturer's instructions using a FilterMax F5 multimode plate reader (Molecular Devices). Mitochondrial reactive oxygen species (mtROS) were measured using MitoSOX (Invitrogen) as described (Xian et al., 2021). BMDM treated as indicated were loaded with 4 μM MitoSOX for 20 minutes. After washing with PBS twice, cells were resuspended in PBS and counted. Equal numbers of cells from different treatment groups were then plated onto 96-well plates for fluorescence reading. To quantify [Ca^2+]m by 5 μM Rhod-2 or intracellular Ca^2+ intensity by 1 μM Fluo-4, BMDM treated as indicated were loaded with the respective dyes according to manufacturer's instructions for 30 minutes. After washing twice, fluorescence intensity was determined using a FilterMax F5 multimode plate reader (Molecular Devices). To analyze mPTP opening by calcein-quenching assay, BMDM treated as indicated were loaded with calcein at 2 μM and CoCl2 at 160 μM for 30 minutes at 37° C. according to manufacturer's instructions. After washing twice, fluorescence intensity was determined per with a FilterMax F5 multimode plate reader (Molecular Devices).

[3] = tested on: BMDM; assay: cytosolic Ox-mtDNA (8-OH-dG ELISA of cytosolic mtDNA) in BMDM; type: cell-based, mouse; conditions: for induction of Ox-mtDNA cytosolic release by mtROS generator: DMNQ 20 μM 16 hrs or MitoParaquat 5 μM 1 hr
Experimental: as §2
(§4) BMDM were stimulated as indicated. […] Briefly, BMDM were washed with PBS and harvested, 10% of which were saved for DNA extraction of whole cells. The remaining BMDM resuspended with pre-chilled mitochondrial extraction buffer 1 (220 mM mannitol, 70 mM sucrose, 20 mM HEPES-KOH, pH 7.5, 1 mM EDTA and 2 mg/mL bovine serum albumin) supplemented with a protease inhibitor cocktail and a phosphatase inhibitor cocktail were passed through a 25-G syringe (BD Biosciences) 20 times on ice. The homogenized cells were centrifuged at 1000×g for 15 minutes at 4° C. The supernatant was further centrifuged at 10,000×g for 10 minutes at 4° C. to pellet the mitochondria from supernatant cytosolic fraction. qPCR was performed after DNA purification with AllPrep DNA/RNA Mini Kit according to manufacturer's instructions, from both whole cell extracts and cytosolic fractions using mtDNA primers (D-loop, Cox1, non-NUMT), or after DNA purification from whole cell extracts using nuclear DNA primers (Tert, 18S, B2m). The Ct values obtained for mtDNA abundance in whole cell extracts served as normalization controls for the mtDNA values obtained from the cytosolic fractions. For the measurement of Ox-mtDNA, purified mtDNA was extracted from the cytosolic or mitochondrial fractions as indicated. The 8-OH-dG content was then quantified using 8-hydroxy 2-deoxyguanosine ELISA Kit, per manufacturer's instructions.

[4] = tested on: BMDM; assay: cytosolic mtDNA (qPCR after cellular fractionation) in BMDM; type: cell-based, mouse; conditions: for induction of mtDNA cytosolic release by mtROS generator: DMNQ 20 μM 16 hrs or MitoParaquat 5 μM 1 hr
Experimental: as §2, §4

[5] = tested on: NLRP3 inflammasome; assay: NLRP3 inflammasome activation (Casp1 p20 and mature IL-1β, IB and ELISA) in BMDM; type: cell-based, mouse; conditions: for activation of NLRP3 inflammasome by mtROS generator: BMDM −/+ LPS priming, DMNQ or MitoParaquat; for NLRP3 inflammasome activation (Casp1 activation and mature IL-1β secretion): LPS-primed BMDM, compound pretreatment 16 h, challenged with NLRP3 activators
Excerpt: (§1) Paired antibodies (capture and detection) and standard recombinant mouse IL-1β and TNF were used to determine mouse cytokine concentrations according to manufacturer's instructions.

[6] = tested on: BMDM; assay: mtROS (MitoSOX) in BMDM; conditions: LPS-primed BMDM; for mtROS generated by the compound itself: DMNQ 20 μM 16 hrs or MitoParaquat 5 μM 1 hr, compared with ATP
Experimental: as §2, §3

[7] = tested on: BMDM; assay: 8-OH-dG content of mtDNA from mitochondria of BMDM; conditions: for mtDNA oxidation caused by mtROS generator: LPS-primed BMDM, DMNQ 20 μM 16 hrs or MitoParaquat 5 μM 1 hr
Experimental: as §2, §4

[8] = tested on: BMDM; assay: mitochondrial Ca2+ ([Ca^2+]m, Rhod-2) in BMDM; type: cell-based, mouse; conditions: LPS-primed BMDM, XeC 5 μM or RuR 10 μM 16 h
Experimental: After washing, BMDM were kept in the incubator for additional 30 minutes before confocal imaging (Nikon CSU-X1 Spinning Disk). Dynamic [Ca^2+]m images were captured at 10 seconds intervals for 4 minutes, with the addition of NLRP3 agonist at 40 seconds.

[9] = tested on: BMDM; assay: cytosolic Ca2+ (Fluo-4) in BMDM; type: cell-based, mouse; conditions: XeC 5 μM 16 h, ATP challenge
Experimental: as §2
(§5) Mitochondrial membrane potential was measured using TMRM according to manufacturer's instructions. Briefly, BMDM were primed or not with LPS for 4 h, and further stimulated with ATP or nigericin for 60 minutes. Cells were incubated with 200 nM TMRM for 30 minutes at 37° C. After washing twice, fluorescence intensity was determined per manufacturer's instructions using a FilterMax F5 multimode plate reader (Molecular Devices). Mitochondrial reactive oxygen species (mtROS) were measured using MitoSOX (Invitrogen) as described (Xian et al., 2021). […] After washing with PBS twice, cells were resuspended in PBS and counted. Equal numbers of cells from different treatment groups were then plated onto 96-well plates for fluorescence reading. To quantify [Ca^2+]m by 5 μM Rhod-2 or intracellular Ca^2+ intensity by 1 μM Fluo-4, BMDM treated as indicated were loaded with the respective dyes according to manufacturer's instructions for 30 minutes. After washing twice, fluorescence intensity was determined using a FilterMax F5 multimode plate reader (Molecular Devices). […] After washing twice, fluorescence intensity was determined per with a FilterMax F5 multimode plate reader (Molecular Devices).

[10] = tested on: NLRP3, pro-IL-1β, pro-casp1 and ASC; assay: immunoblot of NLRP3 inflammasome component expression in BMDM lysates; type: cell-based, mouse; conditions: BMDM lysates before and after LPS priming, compound pretreatment 16 h
[11] = tested on: TNF; assay: TNF secretion by BMDM (ELISA); type: cell-based, mouse; conditions: compound pretreatment 16 h, LPS priming, NLRP3 activators
Excerpt: as §1

[12] = tested on: BMDM; assay: total mtDNA (LPS-stimulated mtDNA synthesis, qPCR) in BMDM; type: cell-based, mouse; conditions: compound 10 μM 16 h, before or after LPS priming
Excerpt: Nuclear DNA encoding telomerase reverse transcriptase (Tert), 18S ribosomal RNA and β2 microglobulin (B2m) was used for normalization.

[13] = tested on: BMDM; assay: extracellular (cell-free) mtDNA released by donor BMDM; type: cell-based, mouse; conditions: for amount of DNA released by LPS-primed donor BMDM challenged with the NLRP3 activator: 1500,000 donor cells per group, LPS-primed only approximately 0.1 μg
Experimental: Extracellular DNA of donor macrophages (1500,000 cells per group) was isolated using QIAamp Circulating Nucleic Acid Kit according to manufacturer's instructions and then eluted in 300 μL distilled H2O and quantified using spectrophotometric analysis at 260/280 nm with Nanodrop. […] Applicant used 5% of the prepared DNA for qPCR measurement of extracellular mtDNA and the remaining 95% were added to the recipient BMDM for analyzing the paracrine immunostimulatory effects.

[14] = tested on: BMDM; assay: mitochondrial membrane potential (TMRM) in BMDM; type: cell-based, mouse; conditions: BMDM incubated with CsA or VBIT-4
Experimental: as §2, §5

[15] = tested on: BMDM; assay: stimulation of naive recipient BMDM by cell-free mtDNA (cytokine and ISG mRNA, qPCR); type: cell-based, mouse
Experimental: RNA was extracted using AllPrep DNA/RNA Mini kit, and cDNA was synthesized using SuperScript™ VILO™ cDNA Synthesis Kit. mRNA expression was determined by QPCR in a CFX96 thermal cycler (Biorad) as described (Xian et al., 2021). Data are presented in arbitrary units and calculated by the 2^(−ΔΔCT) method. Primer sequences were obtained from the NIH qPrimerDepot (http://mouseprimerdepot.nci.nih.gov) and provided by Integrated DNA technologies.
Extracellular DNA of donor macrophages (1500,000 cells per group) was isolated using QIAamp Circulating Nucleic Acid Kit according to manufacturer's instructions and then eluted in 300 μL distilled H2O and quantified using spectrophotometric analysis at 260/280 nm with Nanodrop. DNA amounts purified among the different treatment groups vary. The DNA amount secreted from LPS-primed donor BMDM is low, approximately at 0.1 μg. The amount of DNA released by LPS-primed donor BMDM challenged with ATP is about 1.3 μg, while the amount of DNA released by LPS-primed donor BMDM challenged with nigericin is around 2 μg. The amount of DNA secreted by LPS-primed donor BMDM challenged with MSU or alum is about 0.7 μg. Applicant used 5% of the prepared DNA for qPCR measurement of extracellular mtDNA and the remaining 95% were added to the recipient BMDM for analyzing the paracrine immunostimulatory effects.

[16] = tested on: ASC; assay: ASC speck formation (immunofluorescence) in BMDM
[17] = tested on: STING; assay: STING Ser365 phosphorylation (puncta by immunofluorescence, immunoblot) in BMDM; conditions: CsA 1 μM, VBIT-4 10 μM or FEN1-IN-4 10 μM 16 hrs
Experimental: as §2
Whole cell lysates were prepared in RIPA buffer (25 mM Tris-HCl pH 7.6, 150 mM NaCl, 1% NP-40, 1% sodium deoxycholate, 0.1% SDS) containing a protease inhibitor cocktail and a phosphatase inhibitor cocktail. Protein concentrations were determined using BCA Protein Assay Kit. Equal amounts of protein were separated by SDS-PAGE and transferred onto PVDF membranes, blocked in 5% BSA in 1×TBST for 1 h and incubated with primary antibodies overnight. Secondary antibodies were added for 1 h and detection was performed using Clarity Western ECL Substrate.
(§6) BMDM were fixed in 4% paraformaldehyde (PFA), permeabilized in 0.2% Triton X-100,and blocked in 1×PBS supplemented with 3% BSA. […] Nuclei were counterstained with DAPI.

[18] = tested on: BMDM; assay: Ox-mtDNA and mtDNA in the intermembrane space (proteinase K digested mitochondria); conditions: supernatant of proteinase K digested mitochondria from treated BMDM
Experimental: To dissect the roles of VDAC oligomerization and mPTP in mtDNA escape, Applicant investigated whether Ox-mtDNA and mtDNA were trapped in the mitochondrial intermembrane space (IMS) of VBIT-4 treated BMDM. […] Using this method (FIG. 2F), Applicant measured relative Ox-mtDNA and mtDNA amounts in the IMS.
BMDM were stimulated as indicated. Cellular fractionation was carried out as previously described (Xian and Liou, 2019; Xian et al., 2019). Briefly, BMDM were washed with PBS and harvested, 10% of which were saved for DNA extraction of whole cells. The remaining BMDM resuspended with pre-chilled mitochondrial extraction buffer 1 (220 mM mannitol, 70 mM sucrose, 20 mM HEPES-KOH, pH 7.5, 1 mM EDTA and 2 mg/mL bovine serum albumin) supplemented with a protease inhibitor cocktail and a phosphatase inhibitor cocktail were passed through a 25-G syringe (BD Biosciences) 20 times on ice. The homogenized cells were centrifuged at 1000×g for 15 minutes at 4° C. […] The 8-OH-dG content was then quantified using 8-hydroxy 2-deoxyguanosine ELISA Kit, per manufacturer's instructions.

[19] = tested on: BMDM; assay: cytochrome C release (immunofluorescence) in BMDM; type: cell-based, mouse; conditions: BMDM treated with etoposide (positive control)
Experimental: as §2, §6

[20] = LPS-primed BMDM, compound 10 μM 16 h, ATP 4 mM 1 h
[21] = LPS-primed shCtrl or shOgg1 BMDM, CsA 1 μM or VBIT-4 10 μM 16 h, ATP 4 mM 1 h

C[n+]1ccc(-c2cc[n+](CCCCCCCCCC[P+](c3ccccc3)(c3ccccc3)c3ccccc3)cc2)cc1.[I-].[I-].[I-] [mitoParaquat]
induction of VDAC oligomerization by mtROS generator [1]: neither compound induced | induction of mPTP opening by mtROS generator [2]: neither compound induced | induction of Ox-mtDNA cytosolic release by mtROS generator ([3]; LPS-primed BMDM): neither compound induced | induction of mtDNA cytosolic release by mtROS generator ([4]; LPS-primed BMDM): neither compound induced | activation of NLRP3 inflammasome by mtROS generator [5]: neither mtROS generator activated | mtROS generated by the compound itself [6]: as much mtROS as ATP | mtDNA oxidation caused by mtROS generator [7]: augmented

COC1=C(OC)C(=O)c2ccccc2C1=O [DMNQ]
induction of VDAC oligomerization by mtROS generator [1]: neither compound induced | induction of mPTP opening by mtROS generator [2]: neither compound induced | induction of Ox-mtDNA cytosolic release by mtROS generator ([3]; LPS-primed BMDM): neither compound induced | induction of mtDNA cytosolic release by mtROS generator ([4]; LPS-primed BMDM): neither compound induced | activation of NLRP3 inflammasome by mtROS generator [5]: neither mtROS generator activated | mtROS generated by the compound itself [6]: as much mtROS as ATP | mtDNA oxidation caused by mtROS generator [7]: augmented

C1CCC[C@H]2CCCN3CC[C@@H](CCCCCC[C@@H]4CCCN5CC[C@@H](CC1)O[C@@H]45)O[C@@H]23 [XeC, xestospongin C]
ATP- or nigericin-induced [Ca^2+]m pulse (Rhod-2 fluorescence) [8]: had no effect | cytosolic Ca^2+ (Fluo-4 fluorescence) [9]: decreased

N.N.N.N.N.N.N.N.N.N.N.N.N.N.[Cl-].[Cl-].[Cl-].[Cl-].[Cl-].[Cl-].[O-2].[O-2].[Ru+3].[Ru+3].[Ru+4] [RuR, ruthenium red]
VDAC oligomerization induced by NLRP3 activator [1]: blocked | mPTP opening (calcein fluorescence) [2]: blocked | cytosolic Ox-mtDNA (release) [3, 20]: reducing | cytosolic mtDNA release [4, 20]: reducing | NLRP3 inflammasome activation (Casp1 activation and mature IL-1β secretion) [5]: suppressed | NLRP3, pro-IL-1β, pro-casp1 and ASC expression [10]: no effect | TNF secretion [11]: no effect | ATP- or nigericin-induced [Ca^2+]m pulse (Rhod-2 fluorescence) [8]: disrupted | LPS-stimulated mtDNA synthesis (total mtDNA) [12]: did not inhibit

O=c1[nH]c(=O)c2[nH]c([O-])nc2[nH]1.[Na+] [MSU, monosodium urate]
amount of DNA released by LPS-primed donor BMDM challenged with the NLRP3 activator [13]: about 0.7 μg

O=C(CC(CO)N1CCN(c2ccc(OC(F)(F)F)cc2)CC1)Nc1ccc(Cl)cc1 (stereo not drawn) [VBIT-4]
VDAC oligomerization induced by NLRP3 activator [1]: blocked | mPTP opening (calcein fluorescence) [2]: little effect on calcein fluorescence | reduction of cytosolic pool of Ox-mtDNA [3, 21]: 81±4% | reduction of cytosolic pool of mtDNA [4, 21]: 50-60% | NLRP3 inflammasome activation (Casp1 activation and mature IL-1β secretion) [5]: inhibited | NLRP3, pro-IL-1β, pro-casp1 and ASC expression [10]: without affecting | TNF secretion [11]: without affecting | mitochondrial depolarization upon NLRP3 activator challenge [14]: abrogated | cell-free mtDNA release ([13]; LPS-primed donor BMDM pretreated with compound, challenged with ATP or nigericin): inhibited | immunostimulatory activity of DNA secreted by treated donor BMDM ([15]; recipient BMDM incubated 24 h with DNA from compound-pretreated donor BMDM, cytokine and ISG mRNAs): inhibited | mtROS production ([6]; compound pretreatment 16 h, ATP or nigericin): modest decline | ASC speck formation ([16]; BMDM, VBIT-4 10 μM 16 h, LPS-primed, ATP or nigericin 1 h): inhibited | reduction of mtDNA oxidation (8-OH-dG in mitochondrial mtDNA) ([7]; LPS-primed BMDM pretreated with CsA or VBIT-4 16 h, ATP stimulation): 45±5.0% | formation of Ser^365 phosphorylated STING puncta ([17]; LPS-primed BMDM, ATP or nigericin): diminished | ATP-induced STING Ser^365 phosphorylation (immunoblot) in Nlrp3−/− BMDM ([17]; LPS-primed Nlrp3−/− BMDM, ATP): completely blocked | amount of Ox-mtDNA within the IMS [18]: elevated | amount of mtDNA (different regions of the genome) within the IMS [18]: elevated

CO[C@@H]1C[C@@H](C[C@H]2CC[C@H](C)[C@H]([C@@H](C)C(=O)O)O2)O[C@]2(O[C@](C)([C@H]3CC[C@@](C)([C@@H]4O[C@@H]([C@H]5O[C@@](O)(CO)[C@H](C)C[C@@H]5C)C[C@@H]4C)O3)C[C@H]2C)[C@@H]1C [nigericin]
amount of DNA released by LPS-primed donor BMDM challenged with the NLRP3 activator [13]: around 2 μg

Nc1ncnc2c1ncn2[C@@H]1O[C@H](COP(=O)(O)OP(=O)(O)OP(=O)(O)O)[C@@H](O)[C@H]1O [ATP, adenosine triphosphate]
amount of DNA released by LPS-primed donor BMDM challenged with the NLRP3 activator [13]: about 1.3 μg

COc1cc([C@@H]2c3cc4c(cc3[C@@H](O[C@@H]3O[C@@H]5CO[C@@H](C)O[C@H]5[C@H](O)[C@H]3O)[C@H]3COC(=O)[C@H]23)OCO4)cc(OC)c1O [etoposide]
cytochrome C release [19]: induced cytochrome C release | ASC speck formation triggered by apoptosis inducer ([16]; BMDM treated with etoposide): did not trigger

O=C1NC(=NS(=O)(=O)c2cccc3ccccc23)S/C1=C\c1ccc(Br)cc1 [Pitstop2]
cytokine mRNA induction by extracellular mtDNA ([15]; recipient BMDM with Pitstop 2 (2 uM), 24 hrs with extracellular DNA): diminish

— US20250064808A1, “METHODS FOR THE TREATMENT OF NLRP3 RELATED DISORDERS” (priority 2022, published 2025)
